In brackets after ≈: the same amount, converted by molar mass. Read-outs that look alike come from different tables or passages of the source.
Columns and labels:
[1] = tested on: Mycobacterium tuberculosis (strain H37RV); experiment: MIC90 determination for testing compounds against M. tuberculosis; format: cell-based
[2] = tested on: Mycobacterium tuberculosis (strain H37RV); experiment: Time kill assay (kill kinetics), broth dilution method; format: cell-based

## NNC(=O)c1ccncc1 [Isoniazid, reference compound]
[1]; LV12076, 10% human serum
  MIC90: 0.03 µg/mL (≈ 0.219 µM)
[1]; LV12086, 20% human serum
  MIC90: 0.03 µg/mL (≈ 0.219 µM)
[1]; LV12086, no human serum
  MIC90: 0.03 µg/mL (≈ 0.219 µM)
[1]; Mycobacterium tuberculosis, H37RV, LV12076, no human serum, read-out: MIC90
  MIC90: 0.03 µg/mL (≈ 0.219 µM)
[2]; 1 μg/ml, day 0
  log CFU/ml: 6.35 log CFU/ml
[2]; 1 μg/ml, day 1
  log CFU/ml: 3.57 log CFU/ml
[2]; 1 μg/ml, day 4
  log CFU/ml: 2.00 log CFU/ml
[2]; 1 μg/ml, day 7
  log CFU/ml: 2.00 log CFU/ml
[2]; 1 μg/ml, day 14
  log CFU/ml: 2.00 log CFU/ml
[2]; 1 μg/ml, day 21
  log CFU/ml: 2.00 log CFU/ml

## O=C(Nc1nc2cc(Cl)ccc2o1)NC12CC3CC(CC(C3)C1)C2
other
  melting point: > 250 °C

## O=C(Nc1nc2c(F)cc(F)cc2s1)NC12CC3CC(CC(C3)C1)C2 [Compound 1]
[1]; Mycobacterium tuberculosis, H37RV, LV12076, 10% human serum
  MIC90: 1 µg/mL (≈ 2.75 µM)
[1]; Mycobacterium tuberculosis, H37RV, LV12086, 20% human serum
  MIC90: 1 µg/mL (≈ 2.75 µM)
[1]; Mycobacterium tuberculosis, H37RV, LV12086, no human serum
  MIC90: 0.25 µg/mL (≈ 0.688 µM)
[1]; Mycobacterium tuberculosis, H37RV, LV12076, no human serum
  MIC90: 0.5 µg/mL (≈ 1.38 µM)
other
  melting point: > 260 °C
[2]; 0.5 μg/ml, day 0
  log CFU/ml: 6.35 log CFU/ml
[2]; 0.5 μg/ml, day 1
  log CFU/ml: 5.57 log CFU/ml
[2]; 0.5 μg/ml, day 4
  log CFU/ml: 2.00 log CFU/ml
[2]; 0.5 μg/ml, day 7
  log CFU/ml: 2.00 log CFU/ml
[2]; 0.5 μg/ml, day 14
  log CFU/ml: 2.00 log CFU/ml
[2]; 0.5 μg/ml, day 21
  log CFU/ml: 2.00 log CFU/ml
[2]; 5 μg/ml, day 0
  log CFU/ml: 6.35 log CFU/ml
[2]; 5 μg/ml, day 1
  log CFU/ml: 6.15 log CFU/ml
[2]; 5 μg/ml, day 4
  log CFU/ml: 3.08 log CFU/ml
[2]; 5 μg/ml, day 7
  log CFU/ml: 2.00 log CFU/ml
[2]; 5 μg/ml, day 14
  log CFU/ml: 2.00 log CFU/ml
[2]; 5 μg/ml, day 21
  log CFU/ml: 2.00 log CFU/ml

Reference: patent US9951032B2, “Antibacterial compounds” (Janssen Sciences Ireland UC, priority 2012, dated 2018)
